Data set [1] concerns Candida albicans. Kind of data set: Antifungal activity on pathological isolated strain (EUCAST susceptibility testing, MIC50). It counts as cell-based. Conditions: C. albicans, ≥ 50% inhibition of growth after 48 h incubation. The method, then: (§1) In vivo studies were performed on pathological isolated strains. […] The compounds of the present invention were tested against Candida albicans, its azole-resistant type and three different pathologic fungi, namely Penicillumpaneum, Aspergillus glaucus and Trichosporonasahi (see table 2). […] Table 2: In vivo antifungal activity
(§2) Candida strains were tested for their susceptibility to the azole (7 dilution series, ranging from 1 mM to 0.01 mM) following the European Committee for Antimicrobial Susceptibility Testing protocol (EUCAST Definitive Document EDef 7.2 Revision, 2012). Briefly, cells were grown in RPMI1640 medium supplied with 2.0% glucose, counted and inoculated at a concentration of 1-5 x 10^5 CFU/ml.

Data set [2] has as its system C. albicans (res. Strains). The data set is described as above. It counts as cell-based, Candida albicans. Conditions: for MIC50: C. albicans (res. Strains), azole-resistant, ≥ 50% inhibition of growth after 48 h incubation. As for the experimental part:
as §1, §2

For data set [3], the system named is P. paneum. The data set is described as above. It counts as cell-based, Penicillumpaneum. Conditions: for MIC50: P. paneum, ≥ 50% inhibition of growth after 48 h incubation. The method, then:
as §1, §2

In data set [4] the test system is A. glaucus. Described as above. In kind it is cell-based, Aspergillus glaucus. As to conditions: ≥ 50% inhibition of growth after 48 h incubation. The method, then:
as §1, §2

The subject of data set [5] is T. asahi. The data set is described as above. It counts as cell-based, Trichosporonasahi. As to conditions: ≥ 50% inhibition of growth after 48 h incubation. As for the experimental part:
as §1, §2

For data set [6], the system named is Candida Robusta. As to conditions: wild type C. robusta, agar, 24 h at 30 °C; result in words, comparison with the parent drug.
Experimental: To evaluate the antifungal acitivty of the new drug candidates, a well-plate based assay was used. The first investigation of antimycotic activity has been performed on a well-known model, namely Candida Robusta. Wild type colony of C. robusta was cultured and diluted to start the growing phase just before treatment and then seeded at different concentrations on the agar terrain poured with different concentrations of the target complexes and incubated for 24 h at 30 °C.
Wild type C. robusta was freshly inoculated and cultured in autoclaved YPD buffer containing 2% bacto peptone, 1% bacto yeast extract and 2% glucose anhydrous at 30°C (Kuehner shaker Labtherm, Kuehner Switzerland).
Briefly, one day before treatment, an aliquot of wild type C. robustawas inoculated in 5 mL YPD buffer solution (see above) and incubated overnight at 30°C. The fungal proliferation was then quantified at 600 nm in a Cary60 UV/Vis (Agilent Technologies). The SC was then seeded at different concentrations of the yeast (representing OD of 0.2, 0.02, 0.002 and 0.0002 for different colony growth rate) in 24-wells plates containing 2 mL growing terrain. […] The fungal colony formation was monitored with Alpha Digitec camera (Bucher Biotec) and the colony density was calculated with Alphalmager software (v1.3.0.7) with multiplex band analysis mode / single tool. […]
Data set [7] concerns human retinal pigment epithelial cell (RPE-1-hTert). Kind of data set: cells. The method, then:
In both topic and systemic applications, antimycotic drugs are getting in contact with patient tissues. It is therefore of utmost importance that new drug candidates display a lack of host toxicity. Thus, the antiproliferative effect of the new complexes were investigated in vitro on human retinal pigment epithelial cell (RPE-1-hTert). […] Table 1: Host cytotoxicity
Human fibroblast (MRC-5) and retinal pigment epithelial (RPE) cell lines were cultured in F-10 medium supplemented with 10% fetal calf serum (FCS, Gibco), 100 U/mL penicillin, 100 µg/mL streptomycin or DMEM medium (Gibco) supplemented with 10% fetal calf serum (FCS, Gibco), 100 U/mL penicillin, 100 µg/mL streptomycin, respectively, at 37 °C and 6% CO2.
Cytotoxicity studies of the compounds of the present invention were performed by a fluorometric cell viability assay using resazurin (Promocell GmbH). Briefly, one day before treatment the cells were plated in triplicate in 96-well plates at a density of 4 × 10^3 cells per well in 100 µL. Upon treating the cells with increasing concentrations of the compounds of the present invention, the cells were incubated for 48 h at 37 °C/6% CO2, the medium was removed, and 100 µL of complete medium containing resazurin (0.2 mg mL^-1 final concentration) was added. After 4 h of incubation at 37 °C/6% CO2, the fluorescence of the highly red fluorescent resorufin product was quantified at 590 nm emission with 540 nm excitation wavelength using a SpectraMax M5 Microplate Reader. The results were expressed as mean ± standard deviation error of independent experiments.

Experimental findings from patent EP3301100A1, “ORGANOMETALLIC FLUCONAZOLE DERIVATES AND THEIR USE AS ANTIMYCOTICS” (Universität Zürich, priority 2016, dated 2018) are described below.

Molecules are shown by their SMILES. Converted amounts (≈) assume the structure as drawn.

In the case of `C[NH+](C[c-]1cccc1)CC(O)(Cn1cncn1)c1ccc(F)cc1F.[Cl-].[Fe+2].c1cc[cH-]c1` (stereo not drawn) [Methyl, syn/anti-N-(ferrocenylmethyl)-2-(2,4-difluorophenyl)-2-hydroxy-N-methyl-3-(1H-1,2,4-triazol-1-yl)propan-1-aminium chloride], the MIC50 (as a rule, an inhibitory concentration at the 50% level, which refers to growth in some studies and to a panel of isolates in others) in data set [1] is 0.07 µM; in data set [2], 0.7 µM; in data set [3], 0.25 µM; in data set [4], >1 µM; in data set [5], 0.13 µM. Further, the azole resistance result in data set [2] (C. albicans resistant strain, result in words) was “able to overcome azole resistance”. Moreover, in data set [3] (e.g. P.paneum, factor versus fluconazole), the “antimycotic potency over the parent drug” value is given as ≤ 800 fold. In data set [6], the antifungal activity result is listed as “highest antimycotic activity”.
`OC(Cn1cncn1)(Cn1cncn1)c1ccc(F)cc1F` [Fluconazole]: the cell viability result in data set [7] is recorded as “did not affect cell viability”. The IC50 (usually the point on the concentration scale where inhibition reaches its midpoint) in data set [7] (Homo sapiens, Epithelial cell, 48 h) is > 100 µM. Besides, the MIC50 in data set [1] (Candida albicans) was 0.8 µM (≈ 0.245 µg/mL); in data set [2] (Candida albicans) it was > 209 µM; in data set [3] it was >209 µM; in data set [4] (Aspergillus glaucus), 0.8 µM (≈ 0.245 µg/mL); in data set [5] it was 1.6 µM (≈ 0.49 µg/mL).
`Cl.OC(CNC[c-]1cccc1)(Cn1cncn1)c1ccc(F)cc1F.[Fe+2].c1cc[cH-]c1` (stereo not drawn) [H, syn/anti-N-(ferrocenylmethyl)-2-(2,4-difluorophenyl)-2-hydroxy-3-(1H-1,2,4-triazol-1-yl)propan-1-aminium chloride]: the concentration for half-maximal inhibition (IC50) in data set [7] (RPE-1-hTert cells, 48 h incubation, resazurin, mean ± standard deviation error) was > 100 µM.
